What all share (type): in vivo
In series [1] the test system is ORYZA SATIVA, L. TEBONNET
In words: Rice tolerance to post-transplant applications under flooded paddy conditions, ORYSAT (Rice, Tebonnet).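 On ORYSAT herbicidal rating (rice tolerance): applied to flooded soil surface three days after transplanting.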 The following applies: post-transplant rice; for ORYSAT herbicidal rating (rice tolerance): rated three to four weeks after treatment; for Herbicidal effect rating, ORYSAT: 3-4 weeks after treatment. In a few lines:
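Post-transplant paddy test: compound applied 3 d after transplanting to flooded soil (1.5-3 cm water), ~0.063-0.5 kg/ha a.i., 50/50 aq/acetone. Silt loam, 2 × 10-d seedlings/pot. Greenhouse 3-4 wk, visual 0-9 score vs control.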

Series [2] deals with CHENOPODIUM ALBUM, L. In words: Postemergence herbicidal evaluation, CHEAL (Lambsquarters, Common). The following applies: rated four to five weeks after treatment, averaged. Put shortly:
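Seedlings of common lambsquarters (Chenopodium album) were raised in jiffy flats for roughly two weeks, then sprayed postemergence through a nozzle at 40 psi with test compound dispersed in 50/50 acetone/water containing 0.5% TWEEN®20 surfactant. Plants were kept on greenhouse benches under standard care and rated visually on a 0-9 scale versus controls.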

The subject of a further series is CYPERUS IRIA. In words: Preemergence weed control under flooded paddy conditions, CYPIR (Rice Flatsedge). The following applies: preemergence weeds, rated three to four weeks after treatment. Put shortly:
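Seeds or propagating organs of rice flatsedge were planted in the top 0.5 cm of silt loam soil in 32 oz. plastic containers, 10.5 cm across and without drainage holes. Water was kept 1.5 to 3 cm above the soil throughout. Treated containers were kept on greenhouse benches, and herbicidal effect was visually rated on a 0-9 scale against a control.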

The next series relates to […], PRESL. In words: Preemergence weed control under flooded paddy conditions, MOOVA (Monochoria). The following applies: for MOOVA herbicidal rating: preemergence weeds, rated three to four weeks after treatment; for Herbicidal effect rating, MOOVA: preemergence, 3-4 weeks after treatment. In a few lines:
(§1)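 Flooded paddy preemergence test: seeds/propagating organs in top 0.5 cm silt loam, water held 1.5-3 cm above soil. Dosing by pipette into flood water, aqueous/acetone 50/50 v/v, ~0.5, 0.25, 0.125, 0.063 kg/ha a.i. Greenhouse; read at 3-4 wk, 0-9 visual scale.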

Series [3] has as its system ECHINOCHLOA ORYZOIDES (ARD.)FRITSCH. In words: Preemergence weed control under flooded paddy conditions, ECHORC (Watergrass (Calif.)). The following applies: for ECHORC herbicidal rating: preemergence weeds, rated three to four weeks after treatment; for Herbicidal effect rating, ECHORC: preemergence, 3-4 weeks after treatment. Put shortly: as §1
Series [4] has as its system AMBROSIA ARTEMISIIFOLIA, L. In words: Preemergence herbicidal evaluation, AMBEL (Ragweed, Common). The following applies: four to five weeks after treatment. The text has this: (§2) Results of herbicide evaluation are expressed on a rating scale (0-9). The scale is based upon a visual observation of plant stand, vigor, malformation, size, chlorosis and overall plant appearance as compared with a control.
(§3) The preemergence herbicidal activity of the test compounds of the present invention is exemplified by the following tests in which the seeds of a variety of monocotyledonous and dicotyledonous plants are separately mixed with potting soil and planted on top of approximately one inch of soil in separate pint cups. […] The treated cups are then placed on greenhouse benches, watered and cared for in accordance with conventional greenhouse procedures. From four to five weeks after treatment, the tests are terminated and each cup is examined and rated according to the rating system provided in Example 40.
(§4) The compounds evaluated are reported by compound number given in Example 40.

The test system of series [5] is CHENOPODIUM ALBUM, L. Description: Preemergence herbicidal evaluation, CHEAL (Lambsquarters, Common). The following applies: for CHEAL rating: four to five weeks after treatment; for CHEAL herbicidal rating: rated four to five weeks after treatment. In a few lines:
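First, seeds in potting soil are sown atop soil in cups. Next, the surface is sprayed with test compound in aqueous acetone at roughly 0.125 to 0.50 kg per hectare. After four to five weeks of greenhouse care, each cup is scored 0-9 against a control.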

The test system of series [6] is ABUTILON THEOPHRASTI, MEDIC. In words: Postemergence herbicidal evaluation, ABUTH (Velvetleaf). The following applies: rated four to five weeks after treatment, averaged. Put shortly: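 Velvetleaf (Abutilon theophrasti) seedlings were raised in jiffy flats for about two weeks and then sprayed postemergence. The test compound was dispersed in a 50/50 acetone/water mixture containing 0.5% TWEEN®20 and applied through a nozzle operating at 40 psi. Plants were kept on greenhouse benches and rated 0-9 four to five weeks after treatment.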

The subject of the next series is ZEA MAYS L. Description: Preemergence herbicidal evaluation, ZEAMX (Corn, Field). Particulars: rated four to five weeks after treatment.
Text: as §2, §3, §4

Series [7] deals with CYPERUS SEROTINUS, ROTTB. Description: Preemergence weed control under flooded paddy conditions, CYPSE (Flatsedge). The following applies: preemergence, 3-4 weeks after treatment. In a few lines: as §1
A further series has as its system CASSIA OBTUSIFOLIA, L. In words: Preemergence herbicidal evaluation, CASOB (Sicklepod). Particulars: rated four to five weeks after treatment.
Text: as §2, §3, §4

The test system of series [8] is ECHINOCHLOA CRUS-GALLI, (L) BEAU. Description: Preemergence herbicidal evaluation, ECHCG (Barnyardgrass). The following applies: rated four to five weeks after treatment. Put shortly: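 Barnyardgrass seeds were mixed with potting soil and planted on about one inch of soil in pint cups for preemergence testing. Treated cups were kept on greenhouse benches, watered and maintained by standard greenhouse practice. After four to five weeks, each cup was visually rated on a 0-9 scale against an untreated control.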

Series [9] relates to SETARIA VIRIDIS, (L) BEAU. In words: Postemergence herbicidal evaluation, SETVI (Foxtail, Green). On the set-up: key to SETVI rating / Herbicidal effect rating, SETVI / SETVI: 0-9 visual rating scale vs untreated control. Put shortly: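 Seedlings about two weeks old were sprayed with compound in 50/50 acetone/water containing 0.5% Tween 20 at about 0.125-0.500 kg/ha and kept in the greenhouse. Visual injury was rated on a 0-9 scale versus control 4-5 weeks after treatment; repeat tests were averaged.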

For another series, the system named is IPOMOEA SPP. Description: Preemergence herbicidal evaluation, IPOSS (Morningglory spp.). Particulars: rated four to five weeks after treatment.
Text: as §2, §3, §4

Another series relates to SAGITTARIA PYGMAEA, L. In words: Preemergence weed control under flooded paddy conditions, SAGPY (Arrowhead (Pygmaea)). The following applies: preemergence, 3-4 weeks after treatment. In a few lines:
as §1

Series [10] has as its system GLYCINE MAX(L) MERR. CV. WILLIAMS
Description: Preemergence herbicidal evaluation, GLXMAW (Soybean, Williams). The following applies: rated four to five weeks after treatment.
Text: as §2, §3, §4

The subject of series [11] is TRITICUM AESTIVUM, CV. APOLLO. In words: Preemergence herbicidal evaluation, TRZAWO (Wheat, Winter, CV. APOLLO). Particulars: rated four to five weeks after treatment.
Text: as §2, §3, §4

`COC(=O)C(C)n1c(=O)n(C)c(=O)n(-c2cc(Oc3c(F)cc(C(F)(F)F)cc3Cl)ccc2Br)c1=O` (stereo not drawn) [Compound 1, Methyl 3-{2-bromo-5-[(2-chloro-α,α,α,6-tetrafluoro-p-tolyl)oxy]phenyl}tetrahydro-α,5-dimethyl-2,4,6-trioxo-s-triazine-1(2H)-acetate]: the “ORYSAT herbicidal rating (rice tolerance)” value in [1] (Rate 0.125 kg/ha) is 1.0; in series [1] (Rate 0.250 kg/ha), 2.0; in series [1] (Rate 0.500 kg/ha) it was 3.0. Moreover, the “CHEAL, herbicide rating (0-9)” value stood at 9.0 in the series with CHENOPODIUM ALBUM, L. [2] (Rate 0.125 kg/ha); 9.0 in the series on CHENOPODIUM ALBUM, L. [2] (Rate 0.250 kg/ha); 9.0 in the series with CHENOPODIUM ALBUM, L. [2] (Rate 0.500 kg/ha). The CYPIR herbicidal rating in the series on CYPERUS IRIA (Rate 0.125 kg/ha), in the series with CYPERUS IRIA (Rate 0.250 kg/ha) and with CYPERUS IRIA (Rate 0.500 kg/ha) was 9.0 in each case. Also, the MOOVA herbicidal rating came out at 9.0 in series […], PRESL. (Rate 0.125 kg/ha); 9.0 in series […], PRESL. (Rate 0.250 kg/ha); 9.0 in series […], PRESL. (Rate 0.500 kg/ha). Further, the ECHORC herbicidal rating in series [3] (Rate 0.125 kg/ha), in [3] (Rate 0.250 kg/ha) and in series [3] (Rate 0.500 kg/ha) was 9.0 in each case. Also, the AMBEL rating in series [4] (Rate 0.125 kg/ha), in [4] (Rate 0.250 kg/ha) and in [4] (Rate 0.500 kg/ha) was 0.0 in each case. The CHEAL rating with CHENOPODIUM ALBUM, L. [5] (Rate 0.125 kg/ha) worked out at 9.0; in the series on CHENOPODIUM ALBUM, L. [5] (Rate 0.250 kg/ha) it was 9.0; with CHENOPODIUM ALBUM, L. [5] (Rate 0.500 kg/ha) it was 9.0. Also, the “ABUTH, herbicide rating (0-9)” value in [6] (Rate 0.125 kg/ha), in [6] (Rate 0.250 kg/ha) and in series [6] (Rate 0.500 kg/ha) was 9.0 throughout.
On to `Cn1c(=O)n(CC(N)=O)c(=O)n(-c2cc(Oc3ncc(C(F)(F)F)cc3Cl)ccc2Br)c1=O` [Compound 42], for which the “Herbicidal effect rating, ORYSAT” value in [1] (0.250 kg/ha) is on record as 1.0; in series [1] (0.500 kg/ha), 2.0. In addition, the ZEAMX herbicidal rating with ZEA MAYS L. (Rate 0.125 kg/ha), in the series on ZEA MAYS L. (Rate 0.250 kg/ha) and with ZEA MAYS L. (Rate 0.500 kg/ha) was 0.0 throughout. Also, the “Herbicidal effect rating, CYPSE” value in [7] (0.250 kg/ha) and in series [7] (0.500 kg/ha) was 0.0 each time. In addition, the CASOB herbicidal rating is given as 0.0 in the series on CASSIA OBTUSIFOLIA, L. (Rate 0.125 kg/ha); 0.0 with CASSIA OBTUSIFOLIA, L. (Rate 0.250 kg/ha); 0.0 in the series with CASSIA OBTUSIFOLIA, L. (Rate 0.500 kg/ha). For the same compound, the ECHCG herbicidal rating in series [8] (Rate 0.125 kg/ha), in [8] (Rate 0.250 kg/ha) and in series [8] (Rate 0.500 kg/ha) was 0.0 each time. Besides, the SETVI rating in series [9] (Rate 0.125 kg/ha), in series [9] (Rate 0.250 kg/ha) and in series [9] (Rate 0.500 kg/ha) was 1.0 throughout. The “Herbicidal effect rating, MOOVA” value in series […], PRESL. (0.250 kg/ha) is recorded as 0.0; in series […], PRESL. (0.500 kg/ha), 0.0. For the same compound, the IPOSS herbicidal rating in the series with IPOMOEA SPP. (Rate 0.125 kg/ha), in the series on IPOMOEA SPP. (Rate 0.250 kg/ha) and in the series with IPOMOEA SPP. (Rate 0.500 kg/ha) was 0.0 throughout. Also, the “Herbicidal effect rating, ECHORC” value in [3] (0.250 kg/ha) and in series [3] (0.500 kg/ha) was 0.0 throughout. For the same compound, the “Herbicidal effect rating, SAGPY” value worked out at 0.0 with SAGITTARIA PYGMAEA, L. (0.250 kg/ha) and 0.0 in the series with SAGITTARIA PYGMAEA, L. (0.500 kg/ha). The CHEAL herbicidal rating with CHENOPODIUM ALBUM, L. [5] (Rate 0.125 kg/ha) was found to be 9.0; in the series with CHENOPODIUM ALBUM, L. [5] (Rate 0.250 kg/ha) it was 9.0; in the series with CHENOPODIUM ALBUM, L. [5] (Rate 0.500 kg/ha), 9.0. Moreover, the GLXMAW herbicidal rating in series [10] (Rate 0.125 kg/ha), in series [10] (Rate 0.250 kg/ha) and in [10] (Rate 0.500 kg/ha) was 0.0 throughout.
Turning to `COC(=O)Cn1c(=O)n(C)c(=O)n(-c2cc(Oc3ccc(Cl)cc3Cl)ccc2Br)c1=O` [Compound 43, Methyl 3-[2-bromo-5-(2,4-dichlorophenoxy)-phenyl]tetrahydro-5-methyl-2,4,6-trioxo-s-triazine-1(2H)-acetate], the “Herbicidal effect rating, ORYSAT” value in [1] (0.063 kg/ha) was found to be 2.0; in [1] (0.125 kg/ha) it was 3.0; in series [1] (0.250 kg/ha), 4.0; in [1] (0.500 kg/ha), 4.0. Besides, the “Herbicidal effect rating, ECHORC” value in series [3] (0.063 kg/ha), in [3] (0.125 kg/ha), in series [3] (0.250 kg/ha) and in series [3] (0.500 kg/ha) was 9.0 in each case. Also, the CHEAL herbicidal rating in the series on CHENOPODIUM ALBUM, L. [5] (Rate 0.125 kg/ha) came to 9.0; with CHENOPODIUM ALBUM, L. [5] (Rate 0.250 kg/ha), 9.0; in the series on CHENOPODIUM ALBUM, L. [5] (Rate 0.500 kg/ha), 9.0. Besides, the TRZAWO herbicidal rating in series [11] (Rate 0.125 kg/ha), in series [11] (Rate 0.250 kg/ha) and in series [11] (Rate 0.500 kg/ha) was 0.5 each time.
